Data from patent US8017612B2, “Piperazine compound and use thereof as a HCV polymerase inhibitor” (priority 2006, dated 2011).

Columns and labels:
[1] = target: T1, HCV polymerase (NS5B) type 1a (Hepatitis C virus genotype 1a, UniProt P26664); experiment: Assay of enzyme (HCV polymerase) inhibitory activity, type 1a enzyme; assay type: biochemical, HCV type 1a (cloned from the blood of patients); details: HCV polymerase inhibitory activity IC50, 1a, type 1a enzyme
T1 construct: made in house; host or cells: Escherichia coli (by the 'similar method' of the 1b enzyme)
How it was run: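 IC50 values derive from radioactivity of newly synthesized RNA with versus without test compound. The enzyme was C-terminally truncated type 1a NS5B, 1.5 μg/ml, run 60 min at 25° C with 3H-UTP-labelled nucleotides.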

[2] = target: T2, HCV polymerase (NS5B) type 1b (Hepatitis C virus genotype 1b, UniProt P26663); experiment: Assay of enzyme (HCV polymerase) inhibitory activity, type 1b enzyme; assay type: biochemical, HCV BK strain (type 1b); details: HCV polymerase inhibitory activity IC50, 1b, type 1b enzyme
T2 construct: a region encoding NS5B (J Virol 1991 March, 65(3), 1105-13, 544 amino acids after deletion of 47 amino acids on the C-terminal); 6xHis (C); made in house; host or cells: Escherichia coli
How it was run: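 Polymerase activity was followed as radiolabelled UTP incorporation by E. coli-expressed, His-tagged NS5B of HCV type 1b lacking its last 47 residues. Conditions: 2 μM UTP, 50 μM other NTPs, Mg2+ buffer at pH 7.5, 25 °C for 60 min. Inhibition relative to compound-free reactions gave IC50.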

Row | SMILES | IC50 [1] | IC50 [2]
1 | O=C(NCc1ccc(OC(F)(F)F)cc1)[C@H]1CN(C(=O)Nc2nnc(Br)s2)CCN1S(=O)(=O)c1ccc(OC(F)(F)F)cc1 [Example 936, (R)-4-(4-trifluoromethoxy-benzenesulfonyl)-piperazine-1,3-dicarboxylic acid 1-[(5-bromo-[1,3,4]thiadiazol-2-yl)-amide] 3-(4-trifluoromethoxy-benzylamide)] | > 1000 nM | > 1000 nM
2 | O=C(NCc1ccc(OC(F)(F)F)cc1)[C@H]1CN(c2nc3c(=O)[nH]ncc3s2)CCN1S(=O)(=O)c1ccc(OC(F)(F)F)cc1 [Example 937, (R)-4-(4-oxo-4,5-dihydro-thiazolo[4,5-d]pyridazin-2-yl)-1-(4-trifluoromethoxy-benzenesulfonyl)-piperazine-2-carboxylic acid 4-trifluoromethoxy-benzylamide] | < 100 nM | < 100 nM
3 | COC(F)(F)c1ccc(CNC(=O)[C@H]2CN(c3nc4cn[nH]c(=O)c4s3)CCN2S(=O)(=O)c2ccc(OC(F)(F)F)cc2)cc1 [Example 938, (R)-4-(7-oxo-6,7-dihydro-thiazolo[4,5-d]pyridazin-2-yl)-1-(4-trifluoromethoxy-benzenesulfonyl)-piperazine-2-carboxylic acid 4-(difluoro-methoxy-methyl)-benzylamide] | 100 to 1000 nM | < 100 nM
4 | O=C(NCc1ccc(OC(F)(F)F)cc1)[C@H]1CN(c2nc3c(CO)nncc3s2)CCN1S(=O)(=O)c1ccc(OC(F)(F)F)cc1 [Example 940, (R)-4-(4-hydroxymethyl-thiazolo[4,5-d]pyridazin-2-yl)-1-(4-trifluoromethoxy-benzenesulfonyl)-piperazine-2-carboxylic acid 4-trifluoromethoxy-benzylamide] | < 100 nM | < 100 nM
5 | Cc1nc(Cl)c2sc(N3CCN(S(=O)(=O)c4ccc(OC(F)(F)F)cc4)[C@@H](C(=O)NCc4ccc(OC(F)F)cc4)C3)nc2n1 [Example 941, (R)-4-(7-chloro-5-methyl-thiazolo[4,5-d]pyrimidin-2-yl)-1-(4-trifluoromethoxy-benzenesulfonyl)-piperazine-2-carboxylic acid 4-difluoromethoxy-benzylamide] | < 100 nM | < 100 nM
6 | Cc1ncc2sc(N3CCN(S(=O)(=O)c4ccc(OC(F)(F)F)cc4)[C@@H](C(=O)NCc4ccc(OC(F)F)cc4)C3)nc2n1 [Example 942, (R)-4-(5-methyl-thiazolo[4,5-d]pyrimidin-2-yl)-1-(4-trifluoromethoxy-benzenesulfonyl)-piperazine-2-carboxylic acid 4-difluoromethoxy-benzylamide] | < 100 nM | < 100 nM
7 | Nc1ncc2sc(N3CCN(S(=O)(=O)c4ccc(OC(F)(F)F)cc4)[C@@H](C(=O)NCc4ccc(OC(F)(F)F)cc4)C3)nc2n1 [Example 943, (R)-4-(5-amino-thiazolo[4,5-d]pyrimidin-2-yl)-1-(4-trifluoromethoxy-benzenesulfonyl)-piperazine-2-carboxylic acid 4-trifluoromethoxy-benzylamide] | < 100 nM | < 100 nM
8 | COc1nncc2nc(N3CCN(S(=O)(=O)c4ccc(OC(F)(F)F)cc4)[C@@H](C(=O)NCc4ccc(OC(F)(F)F)cc4)C3)sc12 [Example 944, (R)-4-(7-methoxy-thiazolo[4,5-d]pyridazin-2-yl)-1-(4-trifluoromethoxy-benzenesulfonyl)-piperazine-2-carboxylic acid 4-trifluoromethoxy-benzylamide] | < 100 nM | < 100 nM
9 | CN(C)c1ncc2sc(N3CCN(S(=O)(=O)c4ccc(OC(F)(F)F)cc4)[C@@H](C(=O)NCc4ccc(OC(F)(F)F)cc4)C3)nc2n1 [Example 945, (R)-4-(5-dimethylamino-thiazolo[4,5-d]pyrimidin-2-yl)-1-(4-trifluoromethoxy-benzenesulfonyl)-piperazine-2-carboxylic acid 4-trifluoromethoxy-benzylamide] | < 100 nM | < 100 nM
10 | O=C(NCc1ccc(OC(F)(F)F)cc1)[C@H]1CN(c2nc3nc(NCCO)ncc3s2)CCN1S(=O)(=O)c1ccc(OC(F)(F)F)cc1 [Example 946, (R)-4-[5-(2-hydroxy-ethylamino)-thiazolo[4,5-d]pyrimidin-2-yl]-1-(4-trifluoromethoxy-benzenesulfonyl)-piperazine-2-carboxylic acid 4-trifluoromethoxy-benzylamide] | < 100 nM | < 100 nM
11 | O=C(NCc1ccc(OC(F)(F)F)cc1)[C@H]1CN(c2nc3nc(Cl)ncc3s2)CCN1S(=O)(=O)c1ccc(C(F)(F)F)s1 [Example 947, (R)-4-(5-chloro-thiazolo[4,5-d]pyrimidin-2-yl)-1-(5-trifluoromethyl-thiophene-2-sulfonyl)-piperazine-2-carboxylic acid 4-trifluoromethoxy-benzylamide] | < 100 nM | < 100 nM
12 | COC(=O)c1cc(=O)nc2sc(N3CCN(S(=O)(=O)c4ccc(OC(F)(F)F)cc4)[C@@H](C(=O)NCc4ccc(OC(F)(F)F)cc4)C3)nn12 [Example 948, 7-oxo-2-[(R)-4-(4-trifluoromethoxy-benzenesulfonyl)-3-(4-trifluoromethoxy-benzylcarbamoyl)-piperazin-1-yl]-7H-[1,3,4]thiadiazolo[3,2-a]pyrimidine-5-carboxylic acid methyl ester] | < 100 nM | < 100 nM
13 | CCc1ncc2sc(N3CCN(S(=O)(=O)c4ccc(OC(F)(F)F)cc4)[C@@H](C(=O)NCc4ccc(OC(F)(F)F)cc4)C3)nc2n1 [Example 949, (R)-4-(5-ethyl-thiazolo[4,5-d]pyrimidin-2-yl)-1-(4-trifluoromethoxy-benzenesulfonyl)-piperazine-2-carboxylic acid 4-trifluoromethoxy-benzylamide] | < 100 nM | < 100 nM
14 | CCc1ncc2sc(N3CCN(S(=O)(=O)c4ccc(C(F)(F)F)cc4)[C@@H](C(=O)NCc4ccc(OC(F)(F)F)cc4)C3)nc2n1 [Example 950, (R)-4-(5-ethyl-thiazolo[4,5-d]pyrimidin-2-yl)-1-(4-trifluoromethyl-benzenesulfonyl)-piperazine-2-carboxylic acid 4-trifluoromethoxy-benzylamide] | < 100 nM | < 100 nM
15 | O=C(NCc1ccc(OC(F)(F)F)cc1)[C@H]1CN(c2nn3c(C(F)(F)F)nnc3s2)CCN1S(=O)(=O)c1ccc(OC(F)(F)F)cc1 [Example 951, (R)-1-(4-trifluoromethoxy-benzenesulfonyl)-4-(3-trifluoromethyl-[1,2,4]triazolo[3,4-b][1,3,4]thiadiazol-6-yl)-piperazine-2-carboxylic acid 4-trifluoromethoxy-benzylamide] | < 100 nM | < 100 nM
16 | CNc1ncc2sc(N3CCN(S(=O)(=O)c4ccc(OC(F)(F)F)cc4)[C@@H](C(=O)NCc4ccc(OC(F)(F)F)cc4)C3)nc2n1 [Example 952, (R)-4-(5-methylamino-thiazolo[4,5-d]pyrimidin-2-yl)-1-(4-trifluoromethoxy-benzenesulfonyl)-piperazine-2-carboxylic acid 4-trifluoromethoxy-benzylamide] | < 100 nM | < 100 nM
17 | O=C(NCc1ccc(OC(F)(F)F)cc1)[C@H]1CN(c2nn3cnnc3s2)CCN1S(=O)(=O)c1ccc(C(F)(F)F)cc1 [Example 953, (R)-4-[1,2,4]triazolo[3,4-b][1,3,4]thiadiazol-6-yl-1-(4-trifluoromethyl-benzenesulfonyl)-piperazine-2-carboxylic acid 4-trifluoromethoxy-benzylamide] | < 100 nM | < 100 nM
18 | O=C(NCc1ccc(OC(F)F)cc1)[C@H]1CN(c2nn3cnnc3s2)CCN1S(=O)(=O)c1ccc(OC(F)(F)F)cc1 [Example 954, (R)-4-[1,2,4]triazolo[3,4-b][1,3,4]thiadiazol-6-yl-1-(4-trifluoromethoxy-benzenesulfonyl)-piperazine-2-carboxylic acid 4-difluoromethoxy-benzylamide] | < 100 nM | < 100 nM
19 | O=C(NCc1ccc(OC(F)F)cc1)[C@H]1CN(c2nc3nc(Cl)ncc3s2)CCN1S(=O)(=O)c1ccc(OC(F)F)cc1 [Example 955, (R)-4-(5-chloro-thiazolo[4,5-d]pyrimidin-2-yl)-1-(4-difluoromethoxy-benzenesulfonyl)-piperazine-2-carboxylic acid 4-difluoromethoxy-benzylamide] | < 100 nM | < 100 nM
20 | O=C(NCc1ccc(OC(F)F)cc1)[C@H]1CN(c2nc3ncncc3s2)CCN1S(=O)(=O)c1ccc(OC(F)F)cc1 [Example 956, (R)-1-(4-difluoromethoxy-benzenesulfonyl)-4-thiazolo[4,5-d]pyrimidin-2-yl-piperazine-2-carboxylic acid 4-difluoromethoxy-benzylamide] | < 100 nM | < 100 nM
21 | Cn1ncc2sc(N3CCN(S(=O)(=O)c4ccc(OC(F)(F)F)cc4)[C@@H](C(=O)NCc4ccc(OC(F)(F)F)cc4)C3)nc2c1=O [Example 957, (R)-4-(5-methyl-4-oxo-4,5-dihydro-thiazolo[4,5-d]pyridazin-2-yl)-1-(4-trifluoromethoxy-benzenesulfonyl)-piperazine-2-carboxylic acid 4-trifluoromethoxy-benzylamide] | < 100 nM | < 100 nM
